Experimental data taken from patent US20160083400A1, “TRICYCLIC GUANIDINE DERIVATIVE” (Sunovion Pharmaceuticals Inc., priority 2014, published 2016).

What was measured:
Format in all cases: biochemical
[1] = target: PDE1B (Homo sapiens, UniProt Q01064); test: In vitro HTRF PDE1 inhibition assay (PDE1B); settings: 100 nM cyclic GMP, calmodulin, 45 minutes at 37° C.
Experimental: The Cisbio cGMP HTRF assay kit (Cat no: 62GM2PEC) was utilized. Cyclic GMP was diluted to 200 nM in HTRF assay buffer (1 mM CaCl2, 10 mM MgCl2, 10 mM Tris-HCl, 0.1% BSA, pH7.4). […] PDE (1A3, 1B or 1C) was diluted to 2× working concentration in HTRF assay buffer with 4 μg/ml Calmodulin, and 10 μl was added to initiate the reaction. The plate was then incubated for 45 minutes at 37° C. d2-Labelled cyclic GMP and anti-cGMP cryptate were diluted in 50 mM phosphate buffer, 0.8M KF, 1% Triton X100, 0.2% BSA, pH7.0. Following incubation 10 μl d2-cGMP, then 10 μl anti cGMP cryptate were added to each well and the plate was incubated for 45 minutes at rt. The plate was then read on Perkin Elmer Victor at 2 different FRET readings ex/emm 340 nm/665 nm and 340 nm/615 nm.

[2] = target: PDE1A (PDE 1A3) (Homo sapiens, UniProt P54750); test: In vitro HTRF PDE1 inhibition assay (PDE1A); settings: PDE1A (1A3); 100 nM cyclic GMP, calmodulin, 45 minutes at 37° C.
Excerpt: (§1) An exemplary procedure for the in vitro Homogenous Time Resolved Fluorescence (HTRF) assay, which can be used to determine the inhibitory action of compounds of the invention toward PDE1 or its isoforms, follows.
(§2) The HTRF PDE1 assay utilized the HTRF technology, which is based on the competition between unlabeled cyclic nucleotide and cyclic nucleotide labeled with XL665 for the binding to cyclic nucleotide-specific antibody labeled with cryptate. The HTRF signal is thus inversely proportional to the concentration of cyclic nucleotide being measured. Since phosphodiesterases break down cyclic nucleotides the HTRF signal was used to determine PDE activity.
(§3) The Cisbio cGMP HTRF assay kit (Cat no: 62GM2PEC) was utilized. Cyclic GMP was diluted to 200 nM in HTRF assay buffer (1 mM CaCl2, 10 mM MgCl2, 10 mM Tris-HCl, 0.1% BSA, pH7.4). 10 μl of compound or DMSO was diluted in 200 nM cyclic GMP solution and added to wells of a 96 well white plate to give 100 nM cyclic GMP in 1% DMSO final concentration. PDE (1A3, 1B or 1C) was diluted to 2× working concentration in HTRF assay buffer with 4 μg/ml Calmodulin, and 10 μl was added to initiate the reaction. The plate was then incubated for 45 minutes at 37° C. d2-Labelled cyclic GMP and anti-cGMP cryptate were diluted in 50 mM phosphate buffer, 0.8M KF, 1% Triton X100, 0.2% BSA, pH7.0. Following incubation 10 μl d2-cGMP, then 10 μl anti cGMP cryptate were added to each well and the plate was incubated for 45 minutes at rt. The plate was then read on Perkin Elmer Victor at 2 different FRET readings ex/emm 340 nm/665 nm and 340 nm/615 nm.
(§4) Compounds having an IC50 of <1 μM, are denoted as +++. Compounds having an IC50 of 1-10 μM, are denoted as ++. Compounds having an IC50 of 10-100 μM, are denoted as +.

[3] = target: PDE1C (Homo sapiens, UniProt Q14123); test: In vitro HTRF PDE1 inhibition assay (PDE1C)
Excerpt: as §1, §2, §3, §4

Chain of PDE1C (Q14123 whole entry): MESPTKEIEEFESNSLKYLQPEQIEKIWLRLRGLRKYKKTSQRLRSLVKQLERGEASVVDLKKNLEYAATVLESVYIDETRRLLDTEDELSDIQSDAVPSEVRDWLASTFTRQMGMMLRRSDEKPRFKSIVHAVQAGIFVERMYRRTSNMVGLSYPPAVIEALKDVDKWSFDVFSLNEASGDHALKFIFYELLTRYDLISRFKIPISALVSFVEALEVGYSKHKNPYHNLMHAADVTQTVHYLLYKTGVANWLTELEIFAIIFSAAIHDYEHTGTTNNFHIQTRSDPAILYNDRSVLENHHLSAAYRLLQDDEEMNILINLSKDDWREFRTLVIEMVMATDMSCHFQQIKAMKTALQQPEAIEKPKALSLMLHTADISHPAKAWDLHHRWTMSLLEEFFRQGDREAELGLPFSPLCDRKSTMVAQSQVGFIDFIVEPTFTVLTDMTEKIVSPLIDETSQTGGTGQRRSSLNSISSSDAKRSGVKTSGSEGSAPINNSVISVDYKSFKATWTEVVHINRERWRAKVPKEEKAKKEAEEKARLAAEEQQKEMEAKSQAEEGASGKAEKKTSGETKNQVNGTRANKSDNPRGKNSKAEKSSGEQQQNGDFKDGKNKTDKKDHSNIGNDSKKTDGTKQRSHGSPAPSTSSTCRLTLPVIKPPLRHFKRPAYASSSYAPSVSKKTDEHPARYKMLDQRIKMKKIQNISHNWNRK
Chain of PDE1A (PDE 1A3) (P54750 whole entry, canonical isoform): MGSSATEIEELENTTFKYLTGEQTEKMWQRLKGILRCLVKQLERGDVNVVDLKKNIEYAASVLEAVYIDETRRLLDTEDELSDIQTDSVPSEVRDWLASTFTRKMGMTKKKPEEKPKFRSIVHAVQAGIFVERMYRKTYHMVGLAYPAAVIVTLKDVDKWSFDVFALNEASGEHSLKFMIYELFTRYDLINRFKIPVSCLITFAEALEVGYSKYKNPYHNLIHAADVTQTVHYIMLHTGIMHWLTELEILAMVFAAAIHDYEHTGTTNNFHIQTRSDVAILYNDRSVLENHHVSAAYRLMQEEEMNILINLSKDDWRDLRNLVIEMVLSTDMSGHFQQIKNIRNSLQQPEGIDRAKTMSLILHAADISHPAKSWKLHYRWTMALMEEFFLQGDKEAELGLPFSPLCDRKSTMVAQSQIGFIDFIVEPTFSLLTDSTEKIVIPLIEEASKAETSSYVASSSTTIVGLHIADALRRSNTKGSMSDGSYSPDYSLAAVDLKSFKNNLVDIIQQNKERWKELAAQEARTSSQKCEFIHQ
Chain of PDE1B (Q01064 whole entry): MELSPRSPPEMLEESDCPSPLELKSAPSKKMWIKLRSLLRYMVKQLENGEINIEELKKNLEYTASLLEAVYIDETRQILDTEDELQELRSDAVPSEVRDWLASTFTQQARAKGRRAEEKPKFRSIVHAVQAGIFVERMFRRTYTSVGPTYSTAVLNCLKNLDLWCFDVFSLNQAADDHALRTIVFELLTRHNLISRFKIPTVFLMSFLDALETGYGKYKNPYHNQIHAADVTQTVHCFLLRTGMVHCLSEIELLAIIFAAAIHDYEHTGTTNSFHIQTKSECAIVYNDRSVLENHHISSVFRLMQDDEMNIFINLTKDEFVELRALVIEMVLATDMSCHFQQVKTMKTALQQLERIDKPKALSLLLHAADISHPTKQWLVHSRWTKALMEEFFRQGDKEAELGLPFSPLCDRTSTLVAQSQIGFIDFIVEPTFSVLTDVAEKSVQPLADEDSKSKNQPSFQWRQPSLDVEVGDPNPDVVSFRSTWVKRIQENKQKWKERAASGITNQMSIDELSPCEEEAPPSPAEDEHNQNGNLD

SMILES	IC50 [1]	IC50 [2]	IC50 [3]
CC(C)c1ncc2c(=O)n3c(nn12)N[C@@H](c1ccc(Cl)cc1)CC3 [Example 18, (2R)-2-(4-Chlorophenyl)-9-isopropyl-1,2,3,4-tetrahydro-6H-imidazo[5,1-f]pyrimido[2,1-c][1,2,4]triazin-6-one]	< 1 µM	< 1 µM	1000 to 10000 nM
CC[C@@H](C)c1ncc2c(=O)n3c(nn12)N[C@@H](c1ccc(Cl)cc1)CC3 [Example 226]	< 1 µM	< 1 µM	< 1000 nM
O=c1c2cnc(C3CCOCC3)n2nc2n1CC[C@H](c1ccc(Cl)cc1)N2 [Example 69, (2R)-2-(4-Chlorophenyl)-9-(tetrahydro-2H-pyran-4-yl)-1,2,3,4-tetrahydro-6H-imidazo[5,1-f]pyrimido[2,1-c][1,2,4]triazin-6-one]	< 1 µM	< 1 µM	< 1000 nM
O=c1c2cnc(C3CCOCC3)n2nc2n1CCC(c1ccc(Cl)cc1)N2 (stereo not drawn) [Example 55]	< 1 µM	< 1 µM	1000 to 10000 nM
O=c1c2cnc(C3(C(F)(F)F)CC3)n2nc2n1CC[C@H](c1ccc(Cl)cc1)N2 [Example 238]	< 1 µM	< 1 µM	1000 to 10000 nM
CC(C)c1ncnc2c(=O)n3c(nc12)NC(c1ccc(Cl)cc1)CC3 (stereo not drawn) [Example 176]	< 1 µM	< 1 µM	1000 to 10000 nM
COC1(c2ncc3c(=O)n4c(nn23)N[C@@H](c2ccc(Cl)cc2)CC4)CC1 [Example 239]	< 1 µM	< 1 µM	1000 to 10000 nM
O=c1c2cnc(C3COC3)n2nc2n1CC[C@H](c1ccc(Cl)cc1)N2 [Example 165]	< 1 µM	< 1 µM	1000 to 10000 nM
O=c1c2cnn(C3CCCC3)c2nc2n1CCC(c1ccc(Cl)cc1)N2 (stereo not drawn) [Example 4]	< 1 µM	1 to 10 µM	1000 to 10000 nM
CC[C@H](C)c1ncc2c(=O)n3c(nn12)N[C@@H](c1ccc(Cl)cc1)CC3 [Example 227]	< 1 µM	< 1 µM	< 1000 nM
COc1ccc(C2CCn3c(nn4c(C5CCOCC5)ncc4c3=O)N2)cc1 (stereo not drawn) [Example 57]	< 1 µM	< 1 µM	< 1000 nM
CC(C)n1ncc2c(=O)n3c(nc21)N[C@@H](c1ccc(Cl)cc1)C3 [Example 144]	< 1 µM	< 1 µM	< 1000 nM
CO[C@@H](C)c1ncc2c(=O)n3c(nn12)N[C@@H](c1ccc(Cl)cc1)CC3 [Example 259]	< 1 µM	< 1 µM	< 1000 nM
CO[C@H](C)c1ncc2c(=O)n3c(nn12)N[C@@H](c1ccc(Cl)cc1)CC3 [Example 260]	< 1 µM	< 1 µM	1000 to 10000 nM
COc1ccc([C@H]2Cn3c(nn4c(C5CCOCC5)ncc4c3=O)N2)cc1 [Example 151, (2S)-2-(4-Methoxyphenyl)-8-(tetrahydro-2H-pyran-4-yl)-2,10-dihydro-3H,5H-diimidazo[2,1-c:5′,1′-f][1,2,4]triazin-5-one]	< 1 µM	< 1 µM	< 1000 nM
CC(C)c1ncc2c(=O)n3c(nn12)NCCC3 [Example 52]	< 1 µM	1 to 10 µM	1000 to 10000 nM
O=c1c2cnc(C3CCCC3)n2nc2n1CC[C@H](c1ccc(Cl)cc1)N2 [Example 61]	< 1 µM	< 1 µM	< 1000 nM
CC(C)n1ncc2c(=O)n3c(nc21)N[C@@H](c1ccc(Cl)cc1)CC3 [Example 27]	< 1 µM	< 1 µM	1000 to 10000 nM
CC(C)(O)c1ncc2c(=O)n3c(nn12)N[C@@H](c1ccc(Cl)cc1)CC3 [Example 242]	< 1 µM	< 1 µM	1000 to 10000 nM
O=c1c2cnc(C3CCOCC3)n2nc2n1C[C@H](c1ccc(Cl)cc1)N2 [Example 139]	< 1 µM	< 1 µM	1000 to 10000 nM
O=c1c2ncnc(C3CCOCC3)c2nc2n1CCC(c1ccc(Cl)cc1)N2 (stereo not drawn) [Example 265, 7-(4-Chlorophenyl)-4-(tetrahydro-2H-pyran-4-yl)-5,7,8,9-tetrahydro-11H-dipyrimido[1,2-a:5′,4′-d]pyrimidin-11-one]	< 1 µM	< 1 µM	1000 to 10000 nM
O=c1c2cnc(C3CCC3)n2nc2n1CC[C@H](c1ccc(Cl)cc1)N2 [Example 65]	< 1 µM	< 1 µM	< 1000 nM
CC(C)c1ncc2c(=O)n3c(nn12)NC(c1ccc(Cl)cc1)CC3 (stereo not drawn) [Example 46]	< 1 µM	10 to 100 µM	1000 to 10000 nM
O=c1c2cnc([C@H]3CCOC3)n2nc2n1CC[C@H](c1ccc(Cl)cc1)N2 [Example 225]	< 1 µM	< 1 µM	< 1000 nM
O=c1c2cnc([C@@H]3CCOC3)n2nc2n1CC[C@H](c1ccc(Cl)cc1)N2 [Example 224]	< 1 µM	< 1 µM	1000 to 10000 nM
CC(C)n1ncc2c(=O)n3c(nc21)NC(c1ccc(C(F)(F)F)cc1)CC3 (stereo not drawn) [Example 29]	< 1 µM	< 1 µM	1000 to 10000 nM
Cc1ccc([C@H]2CN3C(=O)c4cnc(C(C)C)n4NC3=N2)cc1 [Example 96, (2S)-8-Isopropyl-2-(4-methylphenyl)-2,10-dihydro-3H,5H-diimidazo[2,1-c:5′,1′-f][1,2,4]triazin-5-one]	< 1 µM	< 1 µM	< 1000 nM
